Measured values: the NIST ThermoML archive (doi:10.1016/j.fluid.2015.03.033)
Values joined by “and” are separate entries in the source; they are usually repeats but may differ in a detail not shown here. Equal values may be shown once.

Key:
[1] = Liquid, Closed cell (Static) method
[2] = excess molar enthalpy (molar enthalpy of mixing); xn = mol fraction of the nth substance listed; details: 303.15 K, 100 kPa, Liquid, Calvet calorimetry

Cc1ccccc1 [toluene]
[1]
Details	vapor or sublimation pressure
263.64 K	0.484 kPa
273.47 K	0.925 kPa
283.32 K	1.68 kPa
293.24 K	2.926 kPa
298.25 K	3.803 kPa
303.21 K	4.896 kPa
303.23 K	4.896 kPa and 4.894 kPa
313.19 K	7.872 kPa
313.22 K	7.872 kPa
323.22 K	12.25 kPa
333.2 K	18.57 kPa
343.16 K	27.2 kPa

Cc1cnccn1 [2-methylpyrazine]
[1]
Details	vapor or sublimation pressure [kPa]
263.72 K	0.109
273.47 K	0.23
283.27 K	0.457
293.24 K	0.866
303.18 K	1.563
313.12 K	2.697
323.13 K	4.476
333.11 K	7.151
343.05 K	11.03
353.03 K	16.61
362.95 K	24.08

Cc1cnccn1 [2-methylpyrazine] + C1CCCCC1
[2]
Details	excess molar enthalpy [kcal/mol]
x1 = 0.094	0.163
x1 = 0.153	0.234
x1 = 0.251	0.308
x1 = 0.381	0.356
x1 = 0.474	0.364
x1 = 0.566	0.36
x1 = 0.639	0.331
x1 = 0.766	0.242
x1 = 0.845	0.175

C1CCCCC1 [cyclohexane]
[1]
Details	vapor or sublimation pressure [kPa]
283.32 K	6.389
288.28 K	8.195
293.27 K	10.42
298.25 K	13.17
303.27 K	16.45
313.24 K	24.97
323.21 K	36.72
333.21 K	52.48
343.18 K	72.98
353.14 K	99.11

Cc1cnccn1 [2-methylpyrazine] + CCCCCCC
[2]
Details	excess molar enthalpy [kcal/mol]
x1 = 0.082	0.135
x1 = 0.175	0.257
x1 = 0.335	0.353
x1 = 0.411	0.369
x1 = 0.481	0.37
x1 = 0.523	0.369
x1 = 0.622	0.344
x1 = 0.704	0.298
x1 = 0.809	0.231
x1 = 0.877	0.167

CCCCCCC [heptane]
[1]
Details	vapor or sublimation pressure [kPa]
263.45 K	0.817
273.27 K	1.548
283.21 K	2.77
293.25 K	4.772
303.15 K	7.807
313.12 K	12.41
323.1 K	18.98
333.07 K	28.13
343.04 K	40.62
353.01 K	57.56

Cc1cnccn1 [2-methylpyrazine] + Cc1ccccc1
[2]
Details	excess molar enthalpy [kcal/mol]
x1 = 0.156	0.00669
x1 = 0.256	0.0115
x1 = 0.421	0.0174
x1 = 0.465	0.0179
x1 = 0.475	0.0179
x1 = 0.561	0.0165
x1 = 0.698	0.00932
x1 = 0.76	0.00693
